Reference: patent US9827320B2, “Compositions with reduced bitter taste perception” (The Procter & Gamble Company, priority 2014, dated 2017)
Where a name gives a salt, the structure may show the parent alone.

tested on: Human fungiform taste bud cells; experiment: Assay for Taste Receptors (calcium fluorescence, FLIPR); type: cell-based; conditions: FIG. 5B; 0.5 mM 1,10-phenanthroline, 0.5 mM saccharin, 3% propylene glycol; without polyquaternium-2

SMILES	bitterness of the component itself
c1cnc2c(c1)ccc1cccnc12 [1,10-phenanthroline]	very bitter
CC(O)CO (stereo not drawn) [propylene glycol]	very bitter
O=C1NS(=O)(=O)c2ccccc21 [saccharin]	very bitter

same assay, conditions: FIG. 5C; 2 mM; without polyquaternium-2

SMILES	bitterness of the component itself
CNC(N)=S [N-methylthiourea]	only slightly bitter
N#C[C@H](O[C@@H]1O[C@H](CO[C@@H]2O[C@H](CO)[C@@H](O)[C@H](O)[C@H]2O)[C@@H](O)[C@H](O)[C@H]1O)c1ccccc1 [amygdalin]	only slightly bitter
N=C(NCCCCCCNC(=N)NC(=N)Nc1ccc(Cl)cc1)NC(=N)Nc1ccc(Cl)cc1 [chlorhesidice]	only slightly bitter
Cc1ccccc1C(OCCN(C)C)c1ccccc1 (stereo not drawn) [orphenadrine hydrochloride]	most bitter component
CCN(CC)CCNC(=O)c1ccc(N)cc1 [procainamide hydrochloride]	only slightly bitter
O=C1CCCCCN1 [ε-Caprolactam]	only slightly bitter
